Measurements: ChEMBL document CHEMBL3414482, “Structure-activity relationship of pyrrolyl diketo acid derivatives as dual inhibitors of HIV-1 integrase and reverse transcriptase ribonuclease H domain” (J Med Chem, 2015)

Molecular target: Human immunodeficiency virus type 1 reverse transcriptase (Human immunodeficiency virus 1, UniProt Q72547)

| SMILES | IC50 |
| --- | --- |
| CCOC(=O)/C(N)=C/C(=O)c1cn(Cc2ccc(F)cc2)cc1-c1ccccc1 | 72 µM |
| CCOC(=O)/C(O)=C/C(=O)/C=C/c1cc(C(=O)c2ccc(F)cc2)cn1C | 28 µM |
| CCOC(=O)/C(O)=C/C(=O)/C=C/c1cn(Cc2ccc(F)cc2)cc1-c1ccccc1 | 3 µM |
| C/C(C(=O)c1cn(Cc2ccc(F)cc2)cc1-c1ccccc1)=C(/O)C(=O)O | 64 µM |
| O=C(/C=C(\O)C(=O)O)/C=C/c1cc(C(=O)c2ccc(F)cc2)cn1Cc1ccccc1 | 7.5 µM |
| Cn1cc(C(=O)c2ccc(F)cc2)cc1/C=C/C(=O)/C=C(\O)C(=O)O | 20 µM |
| N/C(=C\C(=O)c1cn(Cc2ccc(F)cc2)cc1-c1ccccc1)C(=O)O (mixture of isomers) | 2 µM |
